Tests used:
[1] = ABTS free radical scavenging assay
Protocol: The ABTS anti-radicals’ analysis was carried out according to [Shah et al. (2015)]. The ABTS solution was prepared by dissolving ABTS salt (192 mg) in distilled H2O, transferred to a flask (50 mL), and volume was adjusted. Thereafter, 1 mL of the preceding solution was added to 17 µL of K₂S₂O₈ (140 mM) and placed in the dark for 24 h s. The experiment’s ultimate ABTS dilution was achieved by mixing 1 mL of the reaction mixture with 50 mL of methanol. The ABTS solution (190 µL) was mixed with the sample solution (10 µL) and added to 96-well plates, which were then incubated at room temperature in dark for 2 h. Following incubation, the measurement of ABTS color intensity was conducted using a microplate reader at 734 nm. Positive control solutions were prepared at values of 1,000–62.5 µM. The percentage of ABTS scavenging was determined by using the following equation: % ABTS scavenging=Control−Sample/control×100.

COX-2 = target: T1, COX-2 (Homo sapiens, UniProt P35354); assay: Cyclooxygenase COX-2 inhibition assay; format: biochemical; conditions: for inhibition at 62.5 µg/mL: 62.50 μg/mL; for inhibition at 1000 µg/mL: 1,000 µg/mL
T1 construct: purchased Sigma-Aldrich (local distributor) C0858
T1 sequence (P35354 18-604): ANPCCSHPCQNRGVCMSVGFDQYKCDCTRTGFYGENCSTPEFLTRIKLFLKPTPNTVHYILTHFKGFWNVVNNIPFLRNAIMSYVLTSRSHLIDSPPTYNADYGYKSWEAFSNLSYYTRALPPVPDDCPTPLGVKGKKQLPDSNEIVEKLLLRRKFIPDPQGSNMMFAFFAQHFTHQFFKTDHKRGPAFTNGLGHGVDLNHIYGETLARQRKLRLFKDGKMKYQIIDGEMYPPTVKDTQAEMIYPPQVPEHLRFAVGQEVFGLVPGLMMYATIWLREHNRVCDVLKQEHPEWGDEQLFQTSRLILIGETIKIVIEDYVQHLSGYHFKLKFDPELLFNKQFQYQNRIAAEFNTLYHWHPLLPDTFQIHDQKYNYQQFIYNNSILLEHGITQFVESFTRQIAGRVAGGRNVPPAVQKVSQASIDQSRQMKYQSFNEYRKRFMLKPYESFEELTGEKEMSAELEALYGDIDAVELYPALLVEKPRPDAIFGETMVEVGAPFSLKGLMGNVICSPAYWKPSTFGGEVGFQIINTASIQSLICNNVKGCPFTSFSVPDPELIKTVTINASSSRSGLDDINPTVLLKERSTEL
Protocol: The COX-2 enzyme solution with 300 U/mL concentrations was formed. The enzyme solution (10 µL) was maintained on ice up to 10 min for activation. Moreover, this solution was added to a 50 µL co-factor solution containing 1 mM hematin, 0.9 mM glutathione, and 0.24 mM N,N,N,N-tetramethyl-p-phenylenediamine dihydrochloride (TMPD) in 0.1 M Tris HCl buffer at pH 8.0. […] Likewise, 30 mM of arachidonic acid (20 µL) was mixed for initiating the reaction and incubated for 4–5 min. Following incubation, absorbance of the samples was determined using a UV-visible spectrophotometer at 570 nm. The percentage inhibition of the COX-2 enzyme was determined through the absorbance value per unit time. Enzyme inhibition against various concentrations of investigated samples was used to calculate the IC50 values.

[2] = DPPH free radical scavenging assay
Protocol: The DPPH (anti-radicals) investigation was carried out according to our earlier reported protocols. Initially, a methanolic DPPH solution was prepared with a concentration of 0.1%. Subsequently, 100 µL of this solution was mixed with an equal volume of the test samples (100 µL) in 96-well plates, following a 30-min incubation period at 25°C ± 3 °C in the dark. Solutions with concentrations ranging from […] were prepared. Five concentrations of 1,000, 500, 250, 125, and 62.5 µM of the Trolox methanolic solution ([…]) were formed. A color reduction in DPPH was observed after incubation; a microplate reader was used, and absorbance was measured at 540 nm ([Mahnashi et al., 2022a]; [Huneif et al., 2022]). The percentage of scavenging was determined by the formula: Scavenging effect %=control absorbance−sample absorbance/control absorbance×100.

[3] = H2O2 free radical scavenging activity
Protocol: The antioxidant potential of isolated compounds was determined using this approach. In a phosphate buffer solution (50 mM, pH 7.40), a solution of H2O2 (2 mM) was produced. The crude extract (0.10 mL) was measured in a test tube and diluted to 0.40 mL using phosphate buffer. Thereafter, H2O2 (0.60 mL) was added and thoroughly mixed. […] 230 nm was used to measure the absorbance of the sample and the standard ([Sadiq et al., 2018]). For all the crude samples, the exact process was followed. According to the procedure, the inhibition percentage and IC50 values were computed.

| Structure (SMILES) | ABTS IC50 [1] [µg/mL] | IC50 (COX-2) [µM] | inhibition at 62.5 µg/mL (COX-2) [%] | inhibition at 125 µg/mL (COX-2) [%] | inhibition at 250 µg/mL (COX-2) [%] | inhibition at 500 µg/mL (COX-2) [%] | DPPH IC50 [2] [µg/mL] | H2O2 IC50 [3] [µg/mL] | ABTS % inhibition ([1]; 62.5 µg/mL) [%] | ABTS % inhibition ([1]; 125 µg/mL) [%] | ABTS % inhibition ([1]; 250 µg/mL) [%] | ABTS % inhibition ([1]; 500 µg/mL) [%] | ABTS % inhibition ([1]; 1,000 µg/mL) [%] | DPPH % inhibition ([2]; 62.5 µg/mL) [%] | DPPH % inhibition ([2]; 125 µg/mL) [%] | DPPH % inhibition ([2]; 250 µg/mL) [%] | DPPH % inhibition ([2]; 500 µg/mL) [%] | DPPH % inhibition ([2]; 1,000 µg/mL) [%] | H2O2 % inhibition ([3]; 62.5 µg/mL) | H2O2 % inhibition ([3]; 125 µg/mL) | further results |
| --- | --- | --- | --- | --- | --- | --- | --- | --- | --- | --- | --- | --- | --- | --- | --- | --- | --- | --- | --- | --- | --- |
| Cc1ccc(C(C)C)c(O)c1 [Compound 3, 2-isopropyl-5-methylphenol] | 21 | 145 | 53 ± 0.57 | 62.5 ± 0.44 | 66.33 ± 0.33 | 74.7 ± 1.2 | 17 | 33 | 65.00 ± 0.30 | 72.54 ± 0.50 | 76.69 ± 0.77 | 83.67 ± 0.61 | 87.79 ± 0.63 | 62.98 ± 0.72 | 67.90 ± 0.96 | 72.91 ± 0.88 | 77.08 ± 0.47 | 81.03 ± 0.35 | 58.74 ± 0.68 % | 62.70 ± 1.25 % | inhibition at 1000 µg/mL (COX-2): 79 ± 0.16%; H2O2 % inhibition ([3]; 250 µg/mL): 67.05 ± 0.75 %; H2O2 % inhibition ([3]; 500 µg/mL): 72.32 ± 1.06 %; H2O2 % inhibition ([3]; 1,000 µg/mL): 77.34 ± 0.98 % |
| Cc1cnc(O)nc1O [Compound 1, 5-methylpyrimidine-24,4-diol] | 0.98 | 84.8 | 61.1 ± 0.7 | 66.4 ± 0.7 | 72.7 ± 0.51 | 78.83 ± 0.73 | 0.90 | 05 | 75.90 ± 0.48 | 79.03 ± 0.48 | 84.90 ± 0.96 | 87.65 ± 1.34 | 91.58 ± 1.12 | 75.00 ± 1.15 | 78.67 ± 0.89 | 83.00 ± 0.58 | 87.03 ± 0.23 | 93.33 ± 0.49 | 69.91 ± 1.30 ^ns % | 71.76 ± 0.61 ^ns % | inhibition at 1000 µg/mL (COX-2): 83.13 ± 0.8%; H2O2 % inhibition ([3]; 250 µg/mL): 76.87 ± 1.27 ^ns %; H2O2 % inhibition ([3]; 500 µg/mL): 81.13 ± 0.20^ns %; H2O2 % inhibition ([3]; 1,000 µg/mL): 85.20 ± 0.23^ns % |

The next lines start with results.

| ABTS IC50 [1] [µg/mL] | IC50 (COX-2) [µM] | inhibition at 62.5 µg/mL (COX-2) [%] | inhibition at 125 µg/mL (COX-2) [%] | inhibition at 250 µg/mL (COX-2) [%] | inhibition at 500 µg/mL (COX-2) [%] | DPPH IC50 [2] [µg/mL] | H2O2 IC50 [3] [µg/mL] | Structure (SMILES) | ABTS % inhibition ([1]; 62.5 µg/mL) [%] | ABTS % inhibition ([1]; 125 µg/mL) [%] | ABTS % inhibition ([1]; 250 µg/mL) [%] | ABTS % inhibition ([1]; 500 µg/mL) [%] | ABTS % inhibition ([1]; 1,000 µg/mL) [%] | DPPH % inhibition ([2]; 62.5 µg/mL) [%] | DPPH % inhibition ([2]; 125 µg/mL) [%] | DPPH % inhibition ([2]; 250 µg/mL) [%] | DPPH % inhibition ([2]; 500 µg/mL) [%] | DPPH % inhibition ([2]; 1,000 µg/mL) [%] | H2O2 % inhibition ([3]; 62.5 µg/mL) | H2O2 % inhibition ([3]; 125 µg/mL) | further results |
| --- | --- | --- | --- | --- | --- | --- | --- | --- | --- | --- | --- | --- | --- | --- | --- | --- | --- | --- | --- | --- | --- |
| 42 | 135 | 55.56 ± 0.52 | 64.78 ± 0.6 | 71.46 ± 0.53 | 77.68 ± 0.63 | 40 | 65 | C=Cc1ccc(O)cc1OC [Compound 4, 3-methoxy-4-vinylphenol] | 57.00 ± 1.15 | 61.67 ± 0.89 | 65.00 ± 0.58 | 72.03 ± 0.23 | 75.33 ± 0.49 | 58.15 ± 0.22 | 63.36 ± 0.71 | 68.39 ± 0.35 | 73.42 ± 0.12 | 77.73 ± 0.03 | 53.90 ± 0.48 % | 57.03 ± 0.48 % | inhibition at 1000 µg/mL (COX-2): 85.72 ± 0.79%; H2O2 % inhibition ([3]; 250 µg/mL): 62.90 ± 0.96 %; H2O2 % inhibition ([3]; 500 µg/mL): 65.65 ± 1.34 %; H2O2 % inhibition ([3]; 1,000 µg/mL): 69.58 ± 1.12 % |
| 03 | 101 | 58.12 ± 0.34 | 63.47 ± 0.49 | 68.75 ± 0.14 | 75.59 ± 0.3 | 04 | 06 | CC1=C(O)C(=O)C(O)CO1 (centres unmarked) [Compound 2, 3,5-dihydroxy-6-methyl-2,3-dihydro-4H-pyran-4-one] | 68.52 ± 0.38 | 72.64 ± 0.16 | 77.61 ± 1.70 | 81.94 ± 0.45 | 86.47 ± 0.22 | 72.74 ± 0.61 | 76.54 ± 0.50 | 81.48 ± 0.64 | 86.86 ± 0.60 | 91.62 ± 0.74 | 67.90 ± 1.16 ^ns % | 71.34 ± 0.55 ^ns % | inhibition at 1000 µg/mL (COX-2): 80.85 ± 0.18%; H2O2 % inhibition ([3]; 250 µg/mL): 75.36 ± 0.49 ^ns %; H2O2 % inhibition ([3]; 500 µg/mL): 80.39 ± 0.49 ^ns %; H2O2 % inhibition ([3]; 1,000 µg/mL): 86.39 ± 0.60 ^ns % |
| 30 | 217 | 46.9 ± 0.42 | 56.4 ± 0.63 | 61 ± 0.33 | 66.2 ± 0.73 | 16 | 35 | C=Cc1cc(OC)c(O)c(OC)c1 [Compound 5, 2,6-dimethoxy-4-vinylphenol] | 60.59 ± 0.30 | 63.08 ± 1.04 | 68.76 ± 0.61 | 74.31 ± 0.58 | 79.49 ± 0.60 | 60.48 ± 0.23 | 63.99 ± 0.19 | 67.05 ± 0.13 | 71.75 ± 0.21 | 75.28 ± 0.42 | 57.51 ± 0.62 % | 62.46 ± 0.47 % | H2O2 % inhibition ([3]; 250 µg/mL): 66.68 ± 0.64 %; H2O2 % inhibition ([3]; 500 µg/mL): 70.53 ± 0.41 %; H2O2 % inhibition ([3]; 1,000 µg/mL): 76.42 ± 0.46 % |
